Patent US9211314B2, “Treatment selection for lung cancer patients using mass spectrum of blood-based sample” (Biodesix, Inc., priority 2014, dated 2015)
“And” between values parts separate entries of the source, which are not always exact repeats. Equal entries are not always repeated.

Experiments:
[1] = system: advanced NSCLC patients; assay: Time-to-event outcomes (OS, PFS) of development set patients (Italian A, B, C cohorts) grouped by VS2.0/VS1.0 classification; assay type: in vivo, human; conditions: for Cox HR (95% CI), OS / Cox HR (95% CI), PFS / Median OS / Median PFS: development set
Text: The following cohorts of patients had samples available for this project: sample sets known as “Italian A”, “Italian B”, “Italian C.” Italian A and B were cohorts of patients with advanced NSCLC treated with gefitinib used in the development and validation of the original VeriStrat test. See generally, U.S. Pat. No. 7,736,905; Taguchi et al., JNCI 99: 838-846 (2007). Italian C was a cohort of patients treated in advanced line with a variety of chemotherapy regimens.
The VS2.0 final classifier was applied to all samples in the development set. Note that this includes samples included in training of the classifier. The VS2.0 classifications of the development set samples are given in Appendix E. Notice that all samples with a VS1.0 classification of Poor were assigned a label of Early. OS and PFS are plotted for patients in the development set grouped according to: Late, Unknown and Early (excluding VS1.0 Poor) and VS 1.0 Poor in FIG. 6. Note that several patients in the Italian C cohort had OS data, but no PFS data. FIG. 6 is a plot of time-to-event outcomes of patients in the development set with labels assigned from development set spectra; FIG. 6A: OS for gefitinib-treated patients, FIG. 6B: PFS for gefitinib-treated patients, FIG. 6C: OS for chemotherapy-treated patients and FIG. 6D PFS for chemotherapy-treated patients.

[2] = system: advanced NSCLC patients; conditions: PROSE, patients classified as VSP (VS1.0); cited from earlier work
[3] = system: advanced NSCLC patients; assay: PROSE study: second-line erlotinib versus chemotherapy, OS and PFS by VS2.0/VS1.0 classification; assay type: in vivo, human
Description: The final CMC/D classifier described above was subject to a test on mass spectra obtained from available samples from the PROSE study under a validation protocol. The final CMC/D classifier was deemed fixed prior to this validation protocol. Mass spectra were provided to analysts blinded to their clinical data. The spectra were analyzed as described above and the resulting classifications (Appendix G) were generated. An un-blinding key was then provided and a statistical analysis was carried out.
For patient 01—044 and patient 01—080, two samples were available. […] No samples were available for patient 01—050, patient 03—006, patient 06—004, patient 06—021, patient 11—043, patient 11—048, and patient 12—014.

[4] = comparison Early/Unk vs Late within treatment
[5] = comparison Poor vs Early/Unk within treatment
[6] = comparison Poor vs Late within treatment
[7] = group Early/Unknown (excluding VS1.0 Poor)
[8] = group Early/Unknown (VS1.0 Good)

Compound: COc1cc2ncnc(Nc3ccc(F)c(Cl)c3)c2cc1OCCCN1CCOCC1 [GEF, gefitinib]
- Cox HR (95% CI), OS [1, 4]: 0.59 (0.37-0.94)
- Cox HR (95% CI), PFS [1, 4]: 0.58 (0.37-0.91)
- Cox HR (95% CI), OS [1, 5]: 0.49 (0.33-0.75)
- Cox HR (95% CI), PFS [1, 5]: 0.64 (0.42-0.95)
- Cox HR (95% CI), OS [1, 6]: 0.30 (0.18-0.49)
- Cox HR (95% CI), PFS [1, 6]: 0.36 (0.22-0.60)
- Median OS [1, 7]: 243 days
- Median PFS [1, 7]: 92 days
- Median OS ([1]; group Late): 457 days
- Median PFS ([1]; group Late): 208 days
- Median OS ([1]; group VS1.0 Poor): 96.5 days
- Median PFS ([1]; group VS1.0 Poor): 61.5 days
- Benefit by overall survival curves, gefitinib versus chemotherapy ([1]; patients whose sample tested Late, FIGS. 6A and 6C): greater benefit from gefitinib than chemotherapy

Compound: C#Cc1cccc(Nc2ncnc3cc(OCCOC)c(OCCOC)cc23)c1 [ERL, erlotinib]
- Survival, erlotinib versus chemotherapy [2]: better survival on chemotherapy versus erlotinib
- Median OS [3, 8]: 9.6 months
- Median PFS [3, 8]: 2.3 months
- Median OS ([3]; group Late): 17.1 months
- Median PFS ([3]; group Late): 3.9 months
- Median OS ([3]; group Late, listed as erlotinib): 17.1 months and 17 months
- Median OS ([3]; group VS1.0 Poor): 3.1 months
- Median PFS ([3]; group VS1.0 Poor): 1.7 months
- HR (95% CI), OS, Treatment: CT vs ERL ([3]; multivariate analysis of VS1.0 Good population): 1.12 (0.85-1.65)
